According to US7148204B2, “Antisense modulation of bcl-x expression” (Isis Pharmaceuticala, Inc., priority 1998, dated 2006):

Columns and labels:
[1] = system: bcl-2 protein; test: Immunoblot of bcl-2 protein in CEM cells; type: cell-based, human; conditions: even at the highest concentration
Procedure: (§1) Postnuclear detergent lysates were prepared as described by Reed et al. (Cancer Res., 1991, 51, 6529–6538), and the protein concentration was determined using a Bradford method protein assay kit (Bio-Rad, Hercules, Calif.). Protein (20 μg) was loaded in each lane, followed by electrophoresis on a 12% sodium dodecyl sulfate-polyacrylamide gel, followed by immunoblotting (Winston et al., 1993). The primary antibody was a 0.4 μg/ml dilution of the mouse monoclonal anti-human bcl-2 (clone 124, Dako, Carpinteria, Calif.), a 4.0 μg/ml dilution of the rabbit polyclonal anti-human bcl-xs/l (Dako), or a 0.3 μg/ml dilution of rabbit polyclonal anti-human Bax (N-20, Santa Cruz Biotechnology, Santa Cruz, Calif.). For development and STORM fluorescent imaging, the secondary antibody was peroxidase-conjugated sheep anti-mouse or donkey anti-rabbit (Amersham, Little Chalfort, UK). Chemiluminescence imaging and quantification were preformed using the STORM instrument and ImageQuant software (Molecular Dynamics, Sunnyvale, Calif.).

[2] = system: human bcl-x mRNA; test: Northern blot analysis of bcl-x mRNA levels in A549 cells; type: cell-based
Procedure: Eighteen hours after antisense treatment, cell monolayers were washed twice with cold PBS and lysed in 1 mL RNAZOL™ (TEL-TEST “B” Inc., Friendswood, Tex.). Total RNA was prepared following manufacturer's recommended protocols. Twenty micrograms of total RNA was fractionated by electrophoresis through 1.2% agarose gels containing 1.1% formaldehyde using a MOPS buffer system (AMRESCO, Inc. Solon, Ohio). RNA was transferred from the gel to HYBOND™-N+ nylon membranes (Amersham Pharmacia Biotech, Piscataway, N.J.) by overnight capillary transfer using a Northern/Southern Transfer buffer system (TEL-TEST “B” Inc., Friendswood, Tex.). RNA transfer was confirmed by UV visualization. Membranes were fixed by UV cross-linking using a STRATALINKER™ UV Crosslinker 2400 (Stratagene, Inc, La Jolla, Calif.).
Membranes were probed using QUICKHYB™ hybridization solution (Stratagene, La Jolla, Calif.) using manufacturer's recommendations for stringent conditions with an 822-base pair bcl-x specific probe prepared by PCR from bases 33–855 of human bcl-xl sequence (Boise et al., 1993, Cell 74:597–608; GenBank accession no. L20121). To normalize for variations in loading and transfer efficiency membranes were stripped and probed for glyceraldehyde-3-phosphate dehydrogenase (GAPDH) RNA (Clontech, Palo Alto, Calif.). Hybridized membranes were visualized and quantitated using a PHOSPHORIMAGER™ and IMAGEQUANT™ Software V3.3 (Molecular Dynamics, Sunnyvale, Calif.). Data was normalized to GAPDH levels in untreated controls.
Oligonucleotides were tested by Northern blot analysis as described in Example 14. Oligonucleotides were tested in A549 cells at a concentration of 400 nM. The results are Table 2:
Oligonucleotides were tested by Northern blot analysis as described in Example 14. Chimeric oligonucleotides were in A549 cells at a concentration of 200 nM. Where present, “N.D.” indicates “not determined”.

[3] = system: bcl-x; test: bcl-x protein in SEM-K2 cells by flow cytometry; type: cell-based, human; conditions: 10 μM without cationic lipid, 48 hours after initial treatment
Procedure: SEM-K2 is a human cell line derived from a patient suffering from a t(4;11) acute lymphoblastic leukemia. Pocock, C. F. E. et al., Br. J. Haematol. (1995), 90(4), 855–67. SEM-K2 cells in exponential phase of growth were maintained in […] medium (Life Technologies, Inc., Gaithersburg, Md.) supplemented with 10% fetal bovine serum, 2 mM glutamine and penicillin/streptomycin, at 37°C. in 5%CO2/95% air. Cells were transferred in 1 mL volumes at approximately 1–5×10^6 cells/ml to 24-well plates. After one hour, 10 μM of ISIS 15999 or scrambled control 15691 ([…]; SEQ ID No. 41) was added to wells, without cationic lipid. At 24 hours and 48 hours repeat doses of 5 μM oligonucleotide were added. […]
For Western blot and flow cytometric protein analysis, cells were washed once in phosphate-buffered saline and pelleted by centrifugation at 1200 rpm for 5 minutes, and resuspended in cell lysis buffer (5M NaCl, 0.1 M HEPES, 500 mM sucrose, 0.5M EDTA, 100 mM spermine, 1 mg/ml aprotinin, 10% Triton X-100) for 15 minutes on ice. Total protein was quantified spectrophotometrically (BioRad) and 100 μg lysate was loaded onto 15% polyacrylamide gels and run at 200V for 45 minutes. […] Cells were analyzed using a FACScalibur™ running Cellquest software (Becton Dickinson, Franklin Lakes, N.J.). […] Fluorescence detector 1 was used with logarithmic amplification for detection of FITC fluorescence. […]

[4] = system: bcl-x protein; test: Western blot analysis of bcl-x protein levels in A549; type: cell-based, human
Procedure: Western blot analysis (immunoblot analysis) was carried out using standard methods. Generally, cells were harvested 16–20 hours after oligonucleotide treatment, washed once with PBS, suspended in Laemmli buffer (100 μl/well), boiled for 5 minutes and loaded on a 16% SDS-PAGE gel. Gels were run for 1.5 hours at 150 V, and transferred to membrane for western blotting. Appropriate primary antibody directed to bcl-x was used, with a radiolabelled or fluorescently labeled secondary antibody directed against the primary antibody species. Bands were visualized using a PHOSPHORIMAGER™ (Molecular Dynamics, Sunnyvale Calif.).
ISIS 15999 and 16009 were tested for the ability to reduce bcl-x protein levels in A549.

[5] = system: bcl-xl protein; test: Immunoblot of bcl-xl protein in CEM cells; type: cell-based, human
Procedure: as §1

With “TCCCGGTTGCTCTGAGACAT (5-10-5 2'-MOE gapmer, phosphorothioate, further chemistry not given here) [ISIS 15999]” the bcl-2 protein levels [1] was “did not decrease”, the “reduction of bcl-x mRNA levels” value ([2]; 25 nM (lowest dose tested)) was “approximately 70%” and the “inhibition of bcl-x mRNA” value ([2]; 50 nM to 200 nM) was “greater than 90%”. The “bcl-x mRNA at the highest dose” value ([2]; 200 nM) was “nearly complete ablation”, the IC50 ([2]; dose-response, Northern blot) was < 25 nM and the “reduction in bcl-x (median fluorescence intensity)” value [3] was 50%. For the same sequence, the bcl-x protein levels [4] was “reduce bcl-x protein levels in a dose-dependent manner” and the “level of bcl-xl protein” value [5] was “dose dependent decrease”.
